Source: patent US11040970B2, “VMAT2 inhibitor compounds and compositions thereof” (Neurocrine Biosciences, Inc., priority 2017, dated 2021)

Molecular target: VMAT2 (Homo sapiens (Human), UniProt Q05940)
Test: VMAT2 radioligand binding assay: competition against 3H-dihydrotetrabenezine on human platelet homogenate (modified procedure)
Settings: 10 nM 3H-dihydrotetrabenezine, 25° C., 90 minutes
Description: Examples of techniques for determining the capability of a compound to inhibit VMAT2 are provided below. The procedure is adapted from that described previously (see, e.g., Near, (1986), Mol. Pharmacol. 30: 252-57; Teng, et al., J. Neurochem. 71, 258-65, 1998). Homogenates from human platelets or Sprague-Dawley rat forebrain were prepared by homogenization and then washed by centrifugation as described previously (see, e.g., Hoare et al., (2003) Peptides 24:1881-97). […] Following incubation at 25° C. for two hours, bound radioligand was collected by rapid filtration onto GF/B glass fiber filters using a Unifilter-96 Harvester (PerkinElmer). Filter plates were pre-treated for 10 minutes with 0.1% polyethylenimine, and following harvesting the filter plates were washed with 800 μl VMAT2 binding buffer. Bound radioligand was quantified by scintillation counting using a Topcount NXT (PerkinElmer).
Following incubation at 25° C. for 90 minutes, bound radioligand was collected by rapid filtration onto GF/B glass fiber filters using a Unifilter-96 Harvester (PerkinElmer). Filter plates were pre-treated with 0.1% polyethylenimine and allowed to dry overnight, and following harvesting the filter plates were washed with 800 μl VMAT2 binding buffer. Bound radioligand was quantified by scintillation counting using a Topcount NXT (PerkinElmer).

VMAT2, sequence (Q05940 whole entry): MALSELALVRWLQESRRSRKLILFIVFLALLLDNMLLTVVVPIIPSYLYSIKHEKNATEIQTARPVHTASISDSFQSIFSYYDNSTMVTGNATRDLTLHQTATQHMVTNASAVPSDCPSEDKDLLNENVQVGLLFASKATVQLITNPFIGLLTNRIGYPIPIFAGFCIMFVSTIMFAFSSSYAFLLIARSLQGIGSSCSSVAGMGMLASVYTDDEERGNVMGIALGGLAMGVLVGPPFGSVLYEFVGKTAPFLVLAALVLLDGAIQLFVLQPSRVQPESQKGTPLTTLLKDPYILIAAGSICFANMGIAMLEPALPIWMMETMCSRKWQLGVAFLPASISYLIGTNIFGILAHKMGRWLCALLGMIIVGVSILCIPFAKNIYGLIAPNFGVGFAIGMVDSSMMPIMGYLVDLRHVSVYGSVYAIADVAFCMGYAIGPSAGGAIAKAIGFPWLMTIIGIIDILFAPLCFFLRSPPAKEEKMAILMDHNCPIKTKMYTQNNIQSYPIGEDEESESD

Compared with `CCN1C[C@@H]2c3cc(OC)c(OC)cc3CCN2C[C@H]1CC(C)C` [Compound 2-1, (3R,11bS)-2-ethyl-9,10-dimethoxy-3-(2-methylpropyl)-1H,2H,3H,4H,6H,7H,11bH-piperazino[2,1-a]isoquinoline], `CCN1C[C@H]2c3cc(OC)c(OC)cc3CCN2C[C@H]1CC(C)C` [Compound 3-1, (3R,11bR)-2-ethyl-9,10-dimethoxy-3-(2-methylpropyl)-1H,2H,3H,4H,6H,7H,11bH-piperazino[2,1-a]isoquinoline] is higher in Ki: 0.01 to 0.5 µM for the first, > 0.5 µM for the second.

First: COc1cc2c(cc1OC)[C@H]1CN(C)[C@H](CC(C)C)CN1CC2 [Compound 2-2, (3R,11bS)-9,10-dimethoxy-2-methyl-3-(2-methylpropyl)-1H,2H,3H,4H,6H,7H,11bH-piperazino[2,1-a]isoquinoline]
Second: COc1cc2c(cc1OC)[C@@H]1CN(C)[C@H](CC(C)C)CN1CC2 [Compound 3-2, (3R,11bR)-9,10-dimethoxy-2-methyl-3-(2-methylpropyl)-1H,2H,3H,4H,6H,7H,11bH-piperazino[2,1-a]isoquinoline]
The Ki of the first is lower: 0.01 to 0.5 µM for the first, > 0.5 µM for the second. The first binds more tightly here.

`COc1cc2c(cc1OC)[C@H]1CN(CC(C)C)[C@H](CC(C)C)CN1CC2` [Compound 2-3, (3R,11bS)-9,10-dimethoxy-2,3-bis(2-methylpropyl)-1H,2H,3H,4H,6H,7H,11bH-piperazino[2,1-a]isoquinoline] and `COc1cc2c(cc1OC)[C@@H]1CN(CC(C)C)[C@H](CC(C)C)CN1CC2` [Compound 3-3, (3R,11bR)-9,10-dimethoxy-2,3-bis(2-methylpropyl)-1H,2H,3H,4H,6H,7H,11bH-piperazino[2,1-a]isoquinoline] cannot be ordered by Ki: > 0.5 µM for the first, > 0.5 µM for the second.

`CCOc1cc2c(cc1OC)[C@H]1CN(C)[C@H](CC(C)C)CN1CC2` [Compound 5-1, (3R,11bS)-9-ethoxy-10-methoxy-2-methyl-3-(2-methylpropyl)-1H,2H,3H,4H,6H,7H,11bH-piperazino[2,1-a]isoquinoline] and `CCCOc1cc2c(cc1OC)[C@H]1CN(C)[C@H](CC(C)C)CN1CC2` [Compound 5-6, (3R,11bS)-10-methoxy-2-methyl-3-(2-methylpropyl)-9-propoxy-1H,2H,3H,4H,6H,7H,11bH-piperazino[2,1-a]isoquinoline] cannot be ordered by Ki: < 0.01 µM for the first, < 0.01 µM for the second.

First: COc1cc2c(cc1OC(C)C)CCN1C[C@@H](CC(C)C)N(C)C[C@H]21 [Compound 5-2, (3R,11bS)-10-methoxy-2-methyl-3-(2-methylpropyl)-9-(propan-2-yloxy)-1H,2H,3H,4H,6H,7H,11bH-piperazino[2,1-a]isoquinoline]
Second: COc1cc2c(cc1OC(C)C)CCN1C[C@@H](CC(C)C)N(C)C[C@@H]21 [Compound 6-1, (3R,11bR)-10-methoxy-2-methyl-3-(2-methylpropyl)-9-(propan-2-yloxy)-1H,2H,3H,4H,6H,7H,11bH-piperazino[2,1-a]isoquinoline]
The Ki of the first is lower: 0.01 to 0.5 µM for the first, > 0.5 µM for the second.

Compared with `COc1cc2c(cc1OCCCF)CCN1C[C@@H](CC(C)C)N(C)C[C@H]21` [Compound 5-3, (3R,11bS)-9-(3-fluoropropoxy)-10-methoxy-2-methyl-3-(2-methylpropyl)-1H,2H,3H,4H,6H,7H,11bH-piperazino[2,1-a]isoquinoline], `COc1cc2c(cc1OCCCF)CCN1C[C@@H](CC(C)C)N(C)C[C@@H]21` [Compound 6-2, (3R,11bR)-9-(3-fluoropropoxy)-10-methoxy-2-methyl-3-(2-methylpropyl)-1H,2H,3H,4H,6H,7H,11bH-piperazino[2,1-a]isoquinoline] is higher in Ki: 0.01 to 0.5 µM for the first, > 0.5 µM for the second.

First: COc1cc2c(cc1OCCF)CCN1C[C@@H](CC(C)C)N(C)C[C@H]21 [Compound 5-4, (3R,11bS)-9-(2-fluoroethoxy)-10-methoxy-2-methyl-3-(2-methylpropyl)-1H,2H,3H,4H,6H,7H,11bH-piperazino[2,1-a]isoquinoline]
Second: COc1cc2c(cc1OCCF)CCN1C[C@@H](CC(C)C)N(C)C[C@@H]21 [Compound 6-3, (3R,11bR)-9-(2-fluoroethoxy)-10-methoxy-2-methyl-3-(2-methylpropyl)-1H,2H,3H,4H,6H,7H,11bH-piperazino[2,1-a]isoquinoline]
The Ki of the first is lower: 0.01 to 0.5 µM for the first, > 0.5 µM for the second. The first binds more tightly here.

First: COc1cc2c(cc1OC1CC1)CCN1C[C@@H](CC(C)C)N(C)C[C@H]21 [Compound 5-5, (3R,11bS)-9-cyclopropoxy-10-methoxy-2-methyl-3-(2-methylpropyl)-1H,2H,3H,4H,6H,7H,11bH-piperazino[2,1-a]isoquinoline]
Second: COc1cc2c(cc1OC1CC1)CCN1C[C@@H](CC(C)C)N(C)C[C@@H]21 [Compound 6-4, (3R,11bR)-9-cyclopropoxy-10-methoxy-2-methyl-3-(2-methylpropyl)-1H,2H,3H,4H,6H,7H,11bH-piperazino[2,1-a]isoquinoline]
The Ki of the first is lower: 0.01 to 0.5 µM for the first, > 0.5 µM for the second. The first binds more tightly here.

`COc1cc2c(cc1OC1CCCC1)CCN1C[C@@H](CC(C)C)N(C)C[C@H]21` [Compound 5-7, (3R,11bS)-9-(cyclopentyloxy)-10-methoxy-2-methyl-3-(2-methylpropyl)-1H,2H,3H,4H,6H,7H,11bH-piperazino[2,1-a]isoquinoline] and `COc1cc2c(cc1OC1CCC1)CCN1C[C@@H](CC(C)C)N(C)C[C@H]21` [Compound 5-16, (3R,11bS)-9-cyclobutoxy-10-methoxy-2-methyl-3-(2-methylpropyl)-1H,2H,3H,4H,6H,7H,11bH-piperazino[2,1-a]isoquinoline] cannot be ordered by Ki: < 0.01 µM for the first, < 0.01 µM for the second.

`C=CCOc1cc2c(cc1OC)[C@H]1CN(C)[C@H](CC(C)C)CN1CC2` [Compound 5-8, (3R,11bS)-10-methoxy-2-methyl-3-(2-methylpropyl)-9-(prop-2-en-1-yloxy)-1H,2H,3H,4H,6H,7H,11bH-piperazino[2,1-a]isoquinoline] and `COc1cc2c(cc1OCC(C)C)CCN1C[C@@H](CC(C)C)N(C)C[C@H]21` [Compound 5-9, (3R,11bS)-10-methoxy-2-methyl-9-(2-methylpropoxy)-3-(2-methylpropyl)-1H,2H,3H,4H,6H,7H,11bH-piperazino[2,1-a]isoquinoline] cannot be ordered by Ki: < 0.01 µM for the first, < 0.01 µM for the second.

`COCCOc1cc2c(cc1OC)[C@H]1CN(C)[C@H](CC(C)C)CN1CC2` [Compound 5-10, (3R,11bS)-10-methoxy-9-(2-methoxyethoxy)-2-methyl-3-(2-methylpropyl)-1H,2H,3H,4H,6H,7H,11bH-piperazino[2,1-a]isoquinoline] and `COc1cc2c(cc1OCCCC#N)CCN1C[C@@H](CC(C)C)N(C)C[C@H]21` [Compound 5-12, 4-{[(3R,11bS)-10-methoxy-2-methyl-3-(2-methylpropyl)-1H,2H,3H,4H,6H,7H,11bH-piperazino[2,1-a]isoquinolin-9-yl]oxy}butanenitrile] fall in the same range of Ki: 0.01 to 0.5 µM for the first, 0.01 to 0.5 µM for the second.

`COc1cc2c(cc1OCC1CCC1)CCN1C[C@@H](CC(C)C)N(C)C[C@H]21` [Compound 5-11, (3R,11bS)-9-(cyclobutylmethoxy)-10-methoxy-2-methyl-3-(2-methylpropyl)-1H,2H,3H,4H,6H,7H,11bH-piperazino[2,1-a]isoquinoline] and `COc1cc2c(cc1OCC1CC1)CCN1C[C@@H](CC(C)C)N(C)C[C@H]21` [Compound 5-15, (3R,11bS)-9-(cyclopropylmethoxy)-10-methoxy-2-methyl-3-(2-methylpropyl)-1H,2H,3H,4H,6H,7H,11bH-piperazino[2,1-a]isoquinoline] cannot be ordered by Ki: < 0.01 µM for the first, < 0.01 µM for the second.

`COc1cc2c(cc1OCCCC(F)(F)F)CCN1C[C@@H](CC(C)C)N(C)C[C@H]21` [Compound 5-13, (3R,11bS)-10-methoxy-2-methyl-3-(2-methylpropyl)-9-(4,4,4-trifluorobutoxy)-1H,2H,3H,4H,6H,7H,11bH-piperazino[2,1-a]isoquinoline] and `COc1cc2c(cc1OCCC(F)(F)F)CCN1C[C@@H](CC(C)C)N(C)C[C@H]21` [Compound 5-19, (3R,11bS)-10-methoxy-2-methyl-3-(2-methylpropyl)-9-(3,3,3-trifluoropropoxy)-1H,2H,3H,4H,6H,7H,11bH-piperazino[2,1-a]isoquinoline] cannot be ordered by Ki: < 0.01 µM for the first, < 0.01 µM for the second.

`COc1cc2c(cc1OCCCCF)CCN1C[C@@H](CC(C)C)N(C)C[C@H]21` [Compound 5-14, (3R,11bS)-9-(4-fluorobutoxy)-10-methoxy-2-methyl-3-(2-methylpropyl)-1H,2H,3H,4H,6H,7H,11bH-piperazino[2,1-a]isoquinoline] and `COc1cc2c(cc1OCC(F)(F)F)CCN1C[C@@H](CC(C)C)N(C)C[C@H]21` [Compound 5-17, (3R,11bS)-10-methoxy-2-methyl-3-(2-methylpropyl)-9-(2,2,2-trifluoroethoxy)-1H,2H,3H,4H,6H,7H,11bH-piperazino[2,1-a]isoquinoline] cannot be ordered by Ki: < 0.01 µM for the first, < 0.01 µM for the second.

`COc1cc2c(cc1OCC1CC1(F)F)CCN1C[C@@H](CC(C)C)N(C)C[C@H]21` (stereo partly drawn) [Compound 5-18, (3R,11bS)-9-[(2,2-difluorocyclopropyl)methoxy]-10-methoxy-2-methyl-3-(2-methylpropyl)-1H,2H,3H,4H,6H,7H,11bH-piperazino[2,1-a]isoquinoline] and `COc1cc2c(cc1OCC(F)(F)F)CCN1C[C@@H](CC3CCC3)N(C)C[C@H]21` [Compound 8-2, (3R,11bS)-3-(cyclobutylmethyl)-10-methoxy-2-methyl-9-(2,2,2-trifluoroethoxy)-1H,2H,3H,4H,6H,7H,11bH-piperazino[2,1-a]isoquinoline] cannot be ordered by Ki: < 0.01 µM for the first, < 0.01 µM for the second.

Compound `COc1cc2c(cc1OCCCF)CCN1C[C@@H](CC3CCC3)N(C)C[C@H]21` [Compound 8-1, (3R,11bS)-3-(cyclobutylmethyl)-9-(3-fluoropropoxy)-10-methoxy-2-methyl-1H,2H,3H,4H,6H,7H,11bH-piperazino[2,1-a]isoquinoline] has a Ki of 0.01 to 0.5 µM.
